Key:
Type in all cases: cell-based
Set-up in all cases: key: −: lack of caspase 3/7 activation after 24 hours of compound treatment; ++: moderate; +++: strong; ++++: very strong
[1] = test system: Calu6 NSCLC cells; assay: Caspase 3/7 activation, Calu6; details: Calu6, KRAS^Q61K; BRG1 WT, LKB1 WT, CDKN2A WT; 24 hours
Protocol: (§1) Inhibition of cell growth and induction of apoptosis were determined by CellTiter-Glo® and caspase 3/7 activation assays after 72 and 24 hours of treatment, respectively.

[2] = test system: H1792 NSCLC cells; assay: Caspase 3/7 activation, H1792; details: H1792, KRAS^G12c; BRG1 WT, LKB1 WT, CDKN2A WT; 24 hours
Protocol: as §1

[3] = test system: H2291 NSCLC cells; assay: Caspase 3/7 activation, H2291; details: H2291, KRAS^G12F; BRG1 WT, LKB1 WT, CDKN2A WT; 24 hours
Protocol: as §1

[4] = test system: H2347 NSCLC cells; assay: Caspase 3/7 activation, H2347; details: H2347, KRAS^Q61K; BRG1 WT, LKB1 WT, CDKN2A WT; 24 hours
Protocol: as §1

[5] = test system: H2122 NSCLC cells; assay: Caspase 3/7 activation, H2122; details: H2122, KRAS^G12c; BRG1 WT, LKB1 MUT, CDKN2A MUT; 24 hours
Protocol: as §1

[6] = test system: H727 NSCLC cells; assay: Caspase 3/7 activation, H727; details: H727, KRAS^G12V; BRG1 WT, LKB1 WT, CDKN2A WT; 24 hours
Protocol: as §1

[7] = test system: H358 NSCLC cells; assay: Caspase 3/7 activation, H358; details: H358, KRAS^G12c; BRG1 WT, LKB1 WT, CDKN2A WT; 24 hours
Protocol: as §1

[8] = test system: H460 NSCLC cells; assay: Caspase 3/7 activation, H460; details: H460, KRAS^Q61H; BRG1 WT, LKB1 MUT, CDKN2A MUT; 24 hours
Protocol: (§2) A panel of 24 non-small cell lung carcinoma (NSCLC) cell lines harboring RAS mutations was analyzed for genomic alterations, gene expression profiling and protein phosphorylation in MAPK and PI3K pathways. Inhibition of cell growth and induction of apoptosis were determined by CellTiter-Glo® and caspase 3/7 activation assays after 72 and 24 hours of treatment, respectively.

[9] = test system: HOP62 NSCLC cells; assay: Caspase 3/7 activation, HOP62; details: HOP62, KRAS^G12c; BRG1 WT, LKB1 WT, CDKN2A MUT; 24 hours
Protocol: as §2

[10] = test system: H23 NSCLC cells; assay: Caspase 3/7 activation, H23; details: H23, KRAS^G12c; BRG1 MUT, LKB1 MUT, CDKN2A WT; 24 hours
Protocol: as §1

[11] = test system: A427 NSCLC cells; assay: Caspase 3/7 activation, A427; details: A427, KRAS^G12D; BRG1 MUT, LKB1 MUT, CDKN2A WT; 24 hours
Protocol: as §1

[12] = test system: H2030 NSCLC cells; assay: Caspase 3/7 activation, H2030; details: H2030, KRAS^G12c; BRG1 MUT, LKB1 MUT, CDKN2A WT; 24 hours
Protocol: as §1

[13] = test system: A549 NSCLC cells; assay: Caspase 3/7 activation, A549; details: A549, KRAS^G12S; BRG1 MUT, LKB1 MUT, CDKN2A MUT; 24 hours
Protocol: as §1

[14] = test system: Calu1 NSCLC cells; assay: Caspase 3/7 activation, Calu1; details: Calu1, KRAS^G12c; BRG1 WT, LKB1 WT, CDKN2A WT; 24 hours
Protocol: as §2

[15] = test system: H1155 NSCLC cells; assay: Caspase 3/7 activation, H1155; details: H1155, KRAS^Q61H; BRG1 WT, LKB1 WT, CDKN2A WT; 24 hours
Protocol: as §2

[16] = test system: H1355 NSCLC cells; assay: Caspase 3/7 activation, H1355; details: H1355, KRAS^G13C; BRG1 NULL, LKB1 MUT, CDKN2A WT; 24 hours
Protocol: as §2

[17] = test system: COR-L23 NSCLC cells; assay: Caspase 3/7 activation, COR-L23; details: COR-L23, KRAS^G12V; BRG1 WT, LKB1 WT, CDKN2A WT; 24 hours
Protocol: as §2

[18] = test system: H2009 NSCLC cells; assay: Caspase 3/7 activation, H2009; details: H2009, KRAS^G12A; BRG1 WT, LKB1 WT, CDKN2A WT; 24 hours
Protocol: as §1

[19] = test system: H441 NSCLC cells; assay: Caspase 3/7 activation, H441; details: H441, KRAS^G12V; BRG1 WT, LKB1 WT, CDKN2A WT; 24 hours
Protocol: as §1

## CC(=O)O[C@@]12CO[C@@H]1C[C@H](O)[C@@]1(C)C(=O)[C@H](O)C3=C(C)[C@@H](OC(=O)[C@H](O)[C@@H](NC(=O)OC(C)(C)C)c4ccccc4)C[C@@](O)([C@@H](OC(=O)c4ccccc4)[C@H]21)C3(C)C [Docataxel, (2R,3S)—N-carboxy-3-phenylisoserine,N-tert-butyl ester, 13-ester with 5β-20-epoxy-1,2α,4,7β,10β,13α-hexahydroxytax-11-en-9-one 4-acetate 2-benzoate, trihydrate]
[1]
  Apoptosis Response (caspase 3/7 activation): ++
[2]
  Apoptosis Response (caspase 3/7 activation): +++
[3]
  Apoptosis Response (caspase 3/7 activation): −
[4]
  Apoptosis Response (caspase 3/7 activation): −
[5]
  Apoptosis Response (caspase 3/7 activation): −
[6]
  Apoptosis Response (caspase 3/7 activation): −
[7]
  Apoptosis Response (caspase 3/7 activation): ++
[8]
  Apoptosis Response (caspase 3/7 activation): ++
[9]
  Apoptosis Response (caspase 3/7 activation): ++
[10]
  Apoptosis Response (caspase 3/7 activation): +++
[11]
  Apoptosis Response (caspase 3/7 activation): ++
[12]
  Apoptosis Response (caspase 3/7 activation): ++
[13]
  Apoptosis Response (caspase 3/7 activation): −
[14]
  Apoptosis Response (caspase 3/7 activation): −
[15]
  Apoptosis Response (caspase 3/7 activation): −
[16]
  Apoptosis Response (caspase 3/7 activation): −
[17]
  Apoptosis Response (caspase 3/7 activation): −
[18]
  Apoptosis Response (caspase 3/7 activation): −
[19]
  Apoptosis Response (caspase 3/7 activation): −

## CC(=O)Nc1cccc(-n2c(=O)n(C3CC3)c(=O)c3c(Nc4ccc(I)cc4F)n(C)c(=O)c(C)c32)c1 [Compound A, N-{3-[3-cyclopropyl-5-(2-fluoro-4-iodo-phenylamino)-6,8-dimethyl-2,4,7-trioxo-3,4,6,7-tetrahydro-2H-pyrido[4,3-d]pyrimidin-1-yl]phenyl}acetamide]
[1]
  Apoptosis Response (caspase 3/7 activation): ++
[2]
  Apoptosis Response (caspase 3/7 activation): ++
[3]
  Apoptosis Response (caspase 3/7 activation): ++
[4]
  Apoptosis Response (caspase 3/7 activation): ++
[5]
  Apoptosis Response (caspase 3/7 activation): ++
[6]
  Apoptosis Response (caspase 3/7 activation): ++
[7]
  Apoptosis Response (caspase 3/7 activation): −
[8]
  Apoptosis Response (caspase 3/7 activation): −
[9]
  Apoptosis Response (caspase 3/7 activation): −
[10]
  Apoptosis Response (caspase 3/7 activation): −
[11]
  Apoptosis Response (caspase 3/7 activation): −
[12]
  Apoptosis Response (caspase 3/7 activation): −
[13]
  Apoptosis Response (caspase 3/7 activation): −
[14]
  Apoptosis Response (caspase 3/7 activation): −
[15]
  Apoptosis Response (caspase 3/7 activation): −
[16]
  Apoptosis Response (caspase 3/7 activation): −
[17]
  Apoptosis Response (caspase 3/7 activation): −
[18]
  Apoptosis Response (caspase 3/7 activation): −
[19]
  Apoptosis Response (caspase 3/7 activation): −
